Measurements: article PMC4897628, “CRF receptor 1 antagonism and brain distribution of active components contribute to the ameliorative effect of rikkunshito on stress-induced anorexia” (Scientific Reports, 2016)

Key:
[1] = biological target: T1, CRFR1 (human CRF receptor 1, corticotropin-releasing factor receptor 1) (Homo sapiens, UniProt P34998); assay: HTRF cAMP assay, antagonist mode, transfected CHO cells; KB from IC50 by modified Cheng-Prusoff equation; format: cell-based
T1 construct: gene CRHR1; receptor expressed in transfected CHO cells (Cerep)
T1 sequence (P34998 24-415): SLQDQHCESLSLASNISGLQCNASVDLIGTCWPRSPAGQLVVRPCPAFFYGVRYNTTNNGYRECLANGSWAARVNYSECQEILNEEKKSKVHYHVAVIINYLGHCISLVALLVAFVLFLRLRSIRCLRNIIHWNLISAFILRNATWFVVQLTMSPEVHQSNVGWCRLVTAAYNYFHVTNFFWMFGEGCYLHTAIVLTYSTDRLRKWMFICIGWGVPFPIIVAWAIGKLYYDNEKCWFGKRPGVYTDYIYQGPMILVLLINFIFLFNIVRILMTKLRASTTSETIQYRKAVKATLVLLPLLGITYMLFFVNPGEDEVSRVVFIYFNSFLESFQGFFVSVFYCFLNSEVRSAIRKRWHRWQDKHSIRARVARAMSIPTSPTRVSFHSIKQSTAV
Description: HTRF cAMP assay, antagonist mode, transfected CHO cells; KB from IC50 by modified Cheng-Prusoff equation on CRFR1 (human CRF receptor 1, corticotropin-releasing factor receptor 1)

[2] = biological target: T1, CRFR1 (human CRF receptor 1, corticotropin-releasing factor receptor 1); assay: HTRF cAMP assay, antagonist mode, transfected CHO cells; format: cell-based
Description: HTRF cAMP assay, antagonist mode, transfected CHO cells on CRFR1 (human CRF receptor 1, corticotropin-releasing factor receptor 1)

A Kb [1] of 1.3 µM and an IC50 [2] of 52 µM were found for COc1c(CC=C(C)C)c(O)cc2oc(=O)c(-c3ccc(O)cc3O)cc12 [Glycycoumarin] in this work.

A Kb [1] of 0.35 µM and an IC50 [2] of 14 µM were found for CC1(C)[C@@H](O)CC[C@]2(C)[C@H]3C(=O)C=C4[C@@H]5C[C@@](C)(C(=O)O)CC[C@]5(C)CC[C@@]4(C)[C@]3(C)CC[C@@H]12 [Glycyrrhetic acid] in this work.

A Kb [1] of 45 µM and an IC50 [2] of 130 µM were found for COc1ccc([C@@H]2CC(=O)c3c(O)cc(O)cc3O2)cc1O [Hesperetin] in this work.

A Kb [1] of 0.67 µM and an IC50 [2] of 28 µM were found for O=C(/C=C/c1ccc(O)cc1)c1ccc(O)cc1O [Isoliquiritigenin] in this work.

A Kb [1] of 0.36 µM and an IC50 [2] of 15 µM were found for COc1ccc(-c2cc(=O)c3c(OC)c(OC)c(OC)c(OC)c3o2)cc1OC [Nobiletin] in this work.

A Kb [1] of 1.5 µM and an IC50 [2] of 60 µM were found for COc1ccc(-c2cc(=O)c3c(OC)c(OC)c(OC)c(OC)c3o2)cc1 [Tangeretin] in this work.

A Kb [1] of 1.8 µM and an IC50 [2] of 74 µM were found for CCCCCCC/C=C/C(=O)CCc1ccc(O)c(OC)c1 [[8]-Shogaol] in this work.
